These results are taken from patent US20050182128A1, “Use of anethole dithiolethione in lung cancer chemoprevention” (priority 2002, published 2005).

Structures are written as SMILES.

The subject of one data set is bronchial dysplasia. The data set is described as follows: Phase IIb trial: nuclear morphometry index (MI) of bronchial biopsies. Format: in vivo, human. The text has this:
The primary outcome of the study was changes in the histopathology grade of the bronchial biopsies before and after six months of intervention. The secondary endpoint was changes in the nuclear morphometry index of the bronchial biopsies.
The method of quantitative nuclear morphometry had been described in detail previously (Lam et al., 1998; Doudkine et al., 1995; Garner et al., 1994). […] Morphometric measurements provide a more objective and reproducible means for the grading of bronchial biopsies than subjective assessment does. The device used to make these high-resolution quantitative morphometric measurements was a Cyto-Savant™ system (Lam et al., 1998; Doudkine et al., 1995; Garner et al., 1994). The images were interactively collected by an experienced cytotechnologist under the direction of a pathologist (JCL). The images were collected using a 20x objective with a numerical aperture of 0.75. Analysis of the nuclei in each tissue consisted of five steps 1) focusing the field of view, 2) automatically segmenting the nuclei in the field, 3) interactively correcting segmentation errors, 4) selecting and classifying the cell nuclei into the categories of basal, intermediate or superficial cells depending or their location within the biopsy where possible, and 5) automatically collecting individually focused images of each selected cell. Additionally, approximately 30 leukocytes were collected to normalize the images for sample to sample variations in staining intensity. On the average, greater than 100 cell nuclei were collected in this fashion for each of the biopsies. Using bulk nuclear features such as the total area and the total amount of light absorbed (which corresponds to the amount of DNA), shape features and descriptions of the distribution of stained DNA (texture features) (Doudkine et al., 1995), a scale was defined with normal nuclei defining one end and cancer-like nuclei defining the other. From the proportion of nuclei along this scale, a Morphometry Index (MI) was derived for each biopsy (Lam et al., 1998).
For quantitative nuclear morphometry, the median MI for histologically normal biopsies was 1.25. The inter-observer variation of measuring the MI was such that a change in MI greater than 0.11 (>2SD) was taken to be a significant change. For the lesion specific analysis, CR was defined as regression of a lesion with a MI of >1.36 to ≦1.36. PD was defined as increase in the MI from ≦1.36 to >1.36. On a participant by participant basis, CR was defined as regression of all sites with MI>1.36 to ≦1.36. PD was defined as progression of any site similar to that defined under the site by site analysis or appearance of new lesions with a MI of >1.36.
Descriptive statistics were used to summarize subject characteristics, and pathologic evaluations of the bronchial biopsy examinations. Comparison between treatment arms was done with the Mann-Whitney test for continuous variables such as age, smoking intensity (pack-years) and MI. Pearson's χ^2 test with continuity correction was used to compare categorical variables such as gender, smoking status (current versus former smokers) and response rates (progression and regression) in the two arms. Fisher's exact test was applied to the lower partial response and stable disease rates. All P values are two-sided. A two-sided P value of less than 0.05 was considered statistically significant.

A further data set deals with nuclear factor NFκB. To be noted: human Jurkat cells; cited from earlier work.
A further data set concerns human Jurkat cells. To be noted: pretreatment of human Jurkat cells; cited from earlier work.

`COc1ccc(-c2cc(=S)ss2)cc1` [ADT, 5-(p-methoxyphenyl)-1,2-dithiole-3-thione]: the “PR rate, subject specific analysis, nuclear morphometry” value with bronchial dysplasia (6 months) is 3%. Moreover, in the data set with bronchial dysplasia (baseline MI >1.36, of 38), the “Biopsies with MI >1.36 at 6 months” value stood at 9 and the “Biopsies with MI ≦1.36 at 6 months” value is 29. Besides, in the data set on bronchial dysplasia (baseline MI >1.36 to ≦1.36 at 6 months, placebo 63%, P=0.37), the “CR rate, lesion specific analysis, nuclear morphometry” value stood at 76%. Moreover, in the data set with bronchial dysplasia (baseline MI ≦1.36, of 112), the “Biopsies with MI >1.36 at 6 months” value stood at 27 and the “Biopsies with MI ≦1.36 at 6 months” value amounted to 85. In the data set on bronchial dysplasia (baseline MI ≦1.36 to >1.36 at 6 months, placebo 33%, P=0.22), the “PD rate, lesion specific analysis, nuclear morphometry” value is on record as 24%. Besides, in the data set with bronchial dysplasia (of 29), the “CR, number of subjects, nuclear morphometry” value was 13; the “PD, number of subjects, nuclear morphometry” value is given as 12; the “PR, number of subjects, nuclear morphometry” value was found to be 1. The “PD rate, person specific analysis, nuclear morphometry” value with bronchial dysplasia (participants with MI>1.36 pre-treatment, placebo 60%, P=0.28) is 41%. The “PD rate lower than placebo, nuclear morphometry” value in the data set with bronchial dysplasia (person specific, 41% versus 60%) came to 19%. Moreover, the “CR rate higher than placebo, nuclear morphometry” value in the data set with bronchial dysplasia (person specific, 45% versus 24%) worked out at 21%. Also, in the data set with bronchial dysplasia (placebo 24%, p=0.19), the “CR rate, person specific analysis, nuclear morphometry” value is recorded as 45%. Moreover, in the data set with bronchial dysplasia (total, of 150), the “Biopsies with MI >1.36 at 6 months” value was 36 and the “Biopsies with MI ≦1.36 at 6 months” value worked out at 114. Moreover, in the data set on nuclear factor NFκB, the “Modulation of NFκB activation” value was “capable of modulating”. Also, in the data set with human Jurkat cells, the “Protection against oxidative stress-induced cytotoxicity” value is listed as “significantly protects cells”.
